What was measured:
[1] = biological target: T1, Oxysterols receptor LXR-alpha (Homo sapiens, UniProt Q13133); assay: Effective concentration against liver X receptor-alpha in HEK293 cell transactivation assay; format: cell-based
T1 sequence (Q13133 whole entry): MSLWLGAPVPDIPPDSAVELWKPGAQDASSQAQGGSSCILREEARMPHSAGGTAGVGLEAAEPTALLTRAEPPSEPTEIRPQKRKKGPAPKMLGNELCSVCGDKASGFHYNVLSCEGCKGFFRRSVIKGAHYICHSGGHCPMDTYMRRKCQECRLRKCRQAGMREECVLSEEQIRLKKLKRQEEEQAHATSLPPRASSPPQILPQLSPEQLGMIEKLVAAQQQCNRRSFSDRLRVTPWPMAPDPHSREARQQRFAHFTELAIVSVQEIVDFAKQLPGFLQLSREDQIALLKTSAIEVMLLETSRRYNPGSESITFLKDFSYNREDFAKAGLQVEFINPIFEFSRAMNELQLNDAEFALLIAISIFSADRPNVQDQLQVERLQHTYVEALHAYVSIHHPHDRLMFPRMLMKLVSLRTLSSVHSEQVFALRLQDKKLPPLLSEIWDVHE

[2] = biological target: T1, Oxysterols receptor LXR-alpha; assay: Effective concentration for cofactor association with recombinant liver X receptor-alpha
[3] = biological target: T1, Oxysterols receptor LXR-alpha; assay: Displacement of [3H2]-F3-methyl AA (1) from liver X receptor-alpha in SPA assay
[4] = biological target: T2, Oxysterols receptor LXR-alpha (Homo sapiens) (UniProt Q13133); assay: Percent inhibition of [3H2]-F3-methyl AA (1) binding to liver X receptor-alpha at 100 uM
T2 sequence (whole entry): T1 sequence (Q13133 whole entry)

[5] = biological target: T3, Oxysterols receptor LXR-beta (Homo sapiens, UniProt P55055); assay: Effective concentration for cofactor association with recombinant liver X receptor-beta
T3 sequence (P55055 whole entry): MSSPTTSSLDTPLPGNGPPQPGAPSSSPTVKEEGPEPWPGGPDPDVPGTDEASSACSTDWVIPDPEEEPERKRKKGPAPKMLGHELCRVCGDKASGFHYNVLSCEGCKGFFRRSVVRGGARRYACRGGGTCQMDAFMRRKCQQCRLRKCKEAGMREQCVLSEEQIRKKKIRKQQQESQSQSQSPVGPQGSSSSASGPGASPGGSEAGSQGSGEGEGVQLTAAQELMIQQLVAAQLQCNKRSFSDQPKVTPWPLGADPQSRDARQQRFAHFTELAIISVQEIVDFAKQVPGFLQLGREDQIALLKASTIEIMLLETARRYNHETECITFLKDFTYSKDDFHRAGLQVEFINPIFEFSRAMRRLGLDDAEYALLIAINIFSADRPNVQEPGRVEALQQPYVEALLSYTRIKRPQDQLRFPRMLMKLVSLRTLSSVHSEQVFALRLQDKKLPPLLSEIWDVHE

[6] = biological target: T4, Oxysterols receptor LXR-beta (Homo sapiens) (UniProt P55055); assay: Percent inhibition of [3H2]-F3-methyl AA (1) binding to liver X receptor-beta at 100 uM
T4 sequence (whole entry): T3 sequence (P55055 whole entry)

[7] = biological target: T3, Oxysterols receptor LXR-beta; assay: Effective concentration for cofactor association with recombinant liver X receptor-beta; Not active
[8] = biological target: T1, Oxysterols receptor LXR-alpha; assay: Displacement of [3H2]-F3-methyl AA (1) from liver X receptor-alpha in SPA assay; Not active
[9] = biological target: T1, Oxysterols receptor LXR-alpha; assay: Effective concentration for cofactor association with recombinant liver X receptor-alpha; Not active
[10] = biological target: T3, Oxysterols receptor LXR-beta; assay: Displacement of [3H2]-F3-methyl AA (1) from liver X receptor-beta in SPA assay; Not active
[11] = biological target: T3, Oxysterols receptor LXR-beta; assay: Displacement of [3H2]-F3-methyl AA (1) from liver X receptor-beta in SPA assay
[12] = biological target: T3, Oxysterols receptor LXR-beta; assay: Effective concentration against liver X receptor-beta in HEK293 cell transactivation assay; format: cell-based

Compound | EC50 [1] [nM] | IC50 [3] [nM] | EC50 [7] | IC50 [8] | EC50 [9] | IC50 [10] | EC50 [2] [nM] | EC50 [5] [nM] | IC50 [11] [nM] | also measured
CC(C)CC[C@@H](O)[C@@H](C)[C@H]1CC[C@H]2[C@@H]3CC=C4C[C@@H](O)CC[C@]4(C)[C@H]3CC[C@]12C [22(R)-HYDROXYCHOLESTEROL] |  |  |  |  |  |  | 15000 | 15000 |  | inhibition [4]: 70%; inhibition [6]: 60%
CC1OC(Oc2cc3c(cc2-c2cc4c(cc2O)[C@@]2(C)CCC[C@](C)(C(=O)O)[C@@H]2CC4)CC[C@H]2[C@@](C)(C(=O)O)CCC[C@]32C)C(O)C(O)C1O (stereo partly specified) |  |  | Not Active | Not Active | Not Active | Not Active |  |  |  | 
C[C@]1(C(=O)O)CCC[C@]2(C)c3cc(O)ccc3CC[C@@H]12 [PODOCARIC ACID] |  | > 50000 |  |  |  |  | > 50000 | > 50000 | > 50000 | 
CC(=O)Oc1ccc2c(c1)[C@@]1(C)CCCC(C)(C(=O)OC(=O)[C@@]3(C)CCC[C@]4(C)c5cc(OC(C)=O)ccc5CC[C@@H]34)[C@@H]1CC2 (stereo partly specified) | 10 | 2 |  |  |  |  | 2 | 2 | 2 | EC50 [12]: 10 nM

More lines, main results first:

EC50 [1] [nM] | IC50 [3] [nM] | EC50 [7] | IC50 [8] | EC50 [9] | IC50 [10] | Compound | EC50 [2] [nM] | EC50 [5] [nM] | IC50 [11] [nM] | also measured
1790 | 35.4 |  |  |  |  | CCCc1c(OCCCSc2ccc(CC(=O)O)cc2Cl)ccc2c(C(F)(F)F)noc12 | 35.4 |  |  | EC50 ([1]; hek293): 1790 nM
 |  | Not Active | Not Active | Not Active | Not Active | C[C@]1(C(=O)O)CCC[C@]2(C)c3cc(OP(=O)(O)Oc4ccc5c(c4)[C@@]4(C)CCC[C@](C)(C(=O)O)[C@@H]4CC5)ccc3CC[C@@H]12 |  |  |  | 

Source: ChEMBL document CHEMBL1145279, “Discovery and development of dimeric podocarpic acid leads as potent agonists of liver X receptor with HDL cholesterol raising activity in mice and hamsters” (Bioorg Med Chem Lett, 2005)
